Assay results reported in US4510136A (priority 1983, dated 1985).

Tests used:
5 Phytophthora species = format: cell-based; conditions: 200.0 ppm in V-8 agar, 22° C., 6 days
Uromyces phaseoli = assay: Bean rust control on sprayed bean seedlings (Example 85); format: in vivo
Description: This suspension was sprayed to the point of run-off on bean seedlings. The following day, the plants were inoculated with a spore suspension of the fungus Uromyces phaseoli, causal agent of bean rust, and incubated in a saturated humidity chamber at 20° for 24 hours and then in a greenhouse for 7 days. Disease ratings were then made. Treated plants from successful treatments had few or no rust pustules in contrast to untreated plants which were covered with rust pustules.

Rhizoctonia solani = assay: Rice sheath blight control on sprayed rice seedlings (Example 87); format: in vivo; conditions: Rhizoctonia solani, 168 h, 100 ppm spray, day before inoculation
How it was run: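 Disease ratings followed 7 days' growth-room incubation of seedlings given a bran/R. solani mycelium inoculum. Inoculation took place one day after spraying to run-off. The spray was a 100 ppm compound suspension in water containing 6% acetone and 250 ppm TREM 014.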

Helminthosporium maydis = assay: Southern corn leaf blight control on sprayed corn seedlings (Example 83); format: in vivo; conditions: Bipolaris maydis, 192 h, 100 ppm spray, day before inoculation
How it was run: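 Corn seedlings were sprayed to run-off with 100 ppm suspensions (6% acetone, 250 ppm TREM 014) and spore-inoculated the following day. Disease and growth reduction were rated after 24 h saturated humidity at 20° plus 7 days in a growth room.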

[1] = system: Puccinia recondita var. tritici; assay: Wheat leaf rust control on sprayed wheat seedlings (Example 79); format: in vivo; conditions: Puccinia recondita, 168 h; for pest or weed control at 100 ppm: 100 ppm spray, day before inoculation
How it was run: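 Disease was scored as leaf rust pustules 7 days after a 24 h, 20° saturated-humidity incubation of seedlings inoculated with P. recondita var. tritici spores. Inoculation followed by one day a run-off spray of 100 ppm compound in water containing 6% acetone and 250 ppm TREM 014.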

Phytophthora infestans = assay: whole plant or invertebrate; format: in vivo; conditions: Phytophthora infestans, in Solanum lycopersicum, 168 h, read-out: % Control of Tomato Late Blight, 100 ppm spray, day before inoculation
Venturia inaequalis = assay: Apple scab control on sprayed apple seedlings (Example 82); format: in vivo; conditions: Venturia inaequalis; for pest or weed control at 100 ppm: 100 ppm spray, day before inoculation; for pest or weed control at 400 ppm: applied at 400 ppm
Pyricularia oryzae = assay: whole plant or invertebrate; format: in vivo; conditions: Pyricularia oryzae, 168 h, read-out: % Control of Rice Blast, 100 ppm spray, day before inoculation
Erysiphe cichoracearum = assay: Cucumber powdery mildew control on sprayed cucumber seedlings (Example 80); format: in vivo; conditions: Golovinomyces cichoracearum, 168 h; for pest or weed control at 100 ppm: 100 ppm spray, day before inoculation
apple seedlings [2] = assay: Phytotoxicity on apple seedlings (Example 82); format: in vivo; design: key: G = growth reduction; H = hormonal effects
Description: (§1) These suspensions were sprayed to the point of run-off on apple seedlings. The following day, the plants were inoculated with a spore suspension of the fungus Venturia inaequalis, causal agent of apple scab, and incubated in a saturated humidity chamber at 20° for 24 hours and then in a growth room for an additional 10-12 days. Treated plants from successful treatments had fewer apple scab lesions when compared to untreated plants which were covered with scab lesions. Phytotoxicity expressed as growth reduction was observed on some of the plants in association with disease control.

Cercospora arachidicola = assay: Peanut early leafspot control on sprayed peanut seedlings (Example 84); format: in vivo; conditions: Mycosphaerella arachidis, 360 h, read-out: % Control Peanut Easly Leafspot; for pest or weed control at 100 ppm: 100 ppm spray, day before inoculation
cucumber seedlings = assay: Phytotoxicity on cucumber seedlings (Example 80); format: in vivo; design: key: G = growth reduction; H = hormonal effects; conditions: 100 ppm spray
How it was run: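 Disease was rated 7 days after inoculation with powdery mildew spores, which followed one day after a run-off spray of 100 ppm compound in water with 6% acetone and 250 ppm TREM 014. Growth reduction or hormonal effects on the seedlings were recorded as phytotoxicity.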

Monilinia fructicola = assay: Stone fruit brown rot control on dipped canned peach halves (Example 86); conditions: 120 h, 100 ppm dip, percent growth inhibition of colonies after five days
Description: Several compounds of the previous examples were again dissolved in acetone in an amount equal to 5% of the final volume and then suspended at a concentration of 100 ppm in purified water containing 700 ppm of the surfactant TREM 014 (polyhydric alcohol esters). Canned peach halves were dipped in this suspension for three minutes and then placed to air dry in sterile containers. Upon drying, the peach halves were inoculated with two pieces of Monilinia fructicola mycelium, causal agent of stone fruit brown rot, and incubated in the sterile containers for five days. At that time the radii of the colonies' growth were measured on each peach. […] Percent disease control (percent growth inhibition of colonies on treated peaches as compared to that of colonies on untreated peaches) is expressed in the table below.

Erysiphe graminis = assay: Barley powdery mildew control on sprayed barley seedlings (Example 81); format: in vivo; conditions: Blumeria graminis, 168 h; for pest or weed control at 100 ppm: 100 ppm spray, day before inoculation
Description: The compounds of the previous examples were again dissolved in acetone in an amount equal to 6% of the final volume and then suspended at a concentration of 100 ppm in purified water containing 250 ppm of the surfactant TREM 014 (polyhydric alcohol esters). These suspensions were sprayed to the point of run-off on barley seedlings. The following day, the plants were inoculated with a spore suspension of the fungus Erysiphe graminis, causal agent of barley powdery mildew, and incubated in growth room for 7 days. Disease ratings were then made. Treated plants from successful treatments had little or no powdery mildew in contrast to untreated plants which were covered with powdery mildew.

apple seedlings [3] = assay: Phytotoxicity on apple seedlings (Example 82); format: in vivo; design: key: G = growth reduction; C = chlorosis; B = burn
Description: as §1

Pythium aphanadermatum [4] = assay: Pythium control on corn, seed coating (Example 92); format: in vivo; conditions: 504 h, 2 gm/kg seed
Description: Several compounds of the previous examples were incorporated into a proprietary formulation and used to coat corn seeds at a rate of 2 gm/kg seed. After being thoroughly coated, the seeds were allowed to air dry at room temperature. The seeds were then planted into soil amended with a mixture of the fungus Pythium aphanadermatum, sand, and corn meal at a rate sufficient to kill most untreated seeds. The seeds were held at 49° F. for 2 weeks and then at 70° F. for 1 additional week. After this time disease ratings were made.

Pythium aphanadermatum [5] = assay: Pythium control on cotton, seed coating (Example 91); format: in vivo; conditions: 168 h, 2 gm/kg seed
Description: Several compounds of the previous examples were incorporated into a proprietary formulation and used to coat cotton seeds at a rate of 2 gm/kg seed. After being thoroughly coated, the seeds were allowed to air dry at room temperature. The cotton seeds were then planted into soil amended with the fungus Pythium aphanadermatum, sand, and corn meal at a rate sufficient to kill most untreated seeds. The seeds were held at room temperature for 1 week, after which time disease ratings were made.

SMILES	No. of 5 Phytophthora species controlled in vitro (5 Phytophthora species)	pest or weed control at 100 ppm (Rhizoctonia solani) [%]	pest or weed control at 100 ppm (Helminthosporium maydis) [%]	pest or weed control at 100 ppm [1] [%]	pest or weed control at 100 ppm (Phytophthora infestans) [%]	pest or weed control at 100 ppm (Venturia inaequalis) [%]	pest or weed control at 100 ppm (Pyricularia oryzae) [%]	pest or weed control at 100 ppm (Erysiphe cichoracearum) [%]	Phytotoxicity on apple (apple seedlings [2]; 100 ppm spray)	pest or weed control at 100 ppm (Cercospora arachidicola) [%]	Phytotoxicity on cucumber (cucumber seedlings)	inhibition of growth at 100 µg/mL (Monilinia fructicola) [%]	further results
C[Si](C)(Cn1cncn1)c1ccc(-c2ccccc2)cc1 [(1,1'-Biphenyl-4-yl)dimethyl(1H--1,2,4-triazol-1-ylmethyl)si] [(1,1'-Biphenyl-4-yl)dimethyl(1H-1,2,4-triazol-1-ylmethyl)silane]	0	–	–	–	–	–	–	–	–	–	–	–	% Control Bean Rust (Uromyces phaseoli; 80 ppm spray, day before inoculation): 100%
C[Si](Cn1cncn1)(c1ccccc1)c1ccc(Cl)cc1Cl (stereo not shown) [(2,4-Dichlorophenyl)methyl(phenyl)(1H-1,2,4-triazol-1-ylmethyl)silane]	–	0	0	100	0	100	0	100	G	100	G	–	–
C[Si](Cn1cncn1)(c1ccccc1)c1ccc(Cl)cc1 (stereo not shown) [(4-Chlorophenyl)methyl(phenyl)(1H-1,2,4-triazol-1-ylmethyl)silane]	0	90	90	100	0	100	100	100	–	100	G	70	% Control Bean Rust (Uromyces phaseoli; applied at 16 ppm): 98%
C[Si](Cn1cncn1)(c1ccccc1)c1ccc(F)cc1 (stereo not shown) [(4-Fluorophenyl)methyl(phenyl)(1H-1,2,4-triazol-1-ylmethyl)silane]	0	80	90	90	0	100	0	100	–	100	–	90	% Control Bean Rust (Uromyces phaseoli; applied at 16 ppm): 100%
CCCC[Si](C)(Cn1cncn1)c1ccc(Cl)cc1Cl (stereo not shown) [Butyl(2,4-dichlorophenyl)methyl(1H-1,2,4-triazol-1-ylmethyl)silane]	0	50	100	100	0	100	0	100	G	100	G	98	–
CCCC[Si](C)(Cn1cncn1)c1ccc(Cl)cc1 (stereo not shown) [Butyl(4-chlorophenyl)methyl(1H-1,2,4-triazol-1-ylmethyl)silane]	–	0	0	80	0	100	0	100	G	0	G	98	pest or weed control at 100 ppm (Erysiphe graminis): 90%
C[Si](C)(Cn1cncn1)c1ccccc1C(F)(F)F [Dimethyl(1H-1,2,4-triazol-1-ylmethyl)(2-trifluoromethylphenyl)silane]	–	–	0	–	–	–	–	100	–	–	–	–	pest or weed control at 100 ppm (Erysiphe graminis): 100%; pest or weed control at 400 ppm (Venturia inaequalis): 65%; Phytotoxicity on apple (apple seedlings [2]; applied at 400 ppm): G; pest or weed control at 400 ppm (Cercospora arachidicola; applied at 400 ppm): 25%
C[Si](C)(Cn1cncn1)c1ccc(F)cc1 [Dimethyl(4-fluorophenyl)(1H-1,2,4-triazol-1-ylmethyl)silane]	–	0	90	100	0	80	0	100	–	50	G	–	Phytotoxicity on apple (apple seedlings [3]; 100 ppm spray): C
Cc1ccc([Si](C)(C)Cn2cncn2)cc1 [Dimethyl(4-methylphenyl)(1H-1,2,4-triazol-1-ylmethyl)silane]	–	–	0	0	0	50	0	100	G	0	G	–	pest or weed control at 2 g/kg seed (Pythium aphanadermatum [4]): 0%; pest or weed control at 2 g/kg seed (Pythium aphanadermatum [5]): 0%
CCCCCCCCCCCC[Si](C)(C)Cn1cncn1 [Dodecyl(dimethyl)(1H-1,2,4-triazol-1-ylmethyl)silane]	–	–	0	–	–	–	–	–	–	–	–	–	pest or weed control at 200 ppm (Erysiphe graminis; applied at 200 ppm): 100%; pest or weed control at 200 ppm ([1]; applied at 200 ppm): 100%; pest or weed control at 400 ppm (Venturia inaequalis): 40%; pest or weed control at 400 ppm (Erysiphe cichoracearum; applied at 400 ppm): 60%; Phytotoxicity on apple (apple seedlings [3]; applied at 400 ppm): B
C[Si](Cn1cncn1)(c1ccc(F)cc1)c1ccc(F)cc1 [bis(4-Fluorophenyl)methyl(1H,-1,2,4-triazol-1-ylmethyl)silane]	0	80	100	0	0	100	100	100	–	100	G	100	pest or weed control at 2 g/kg seed (Pythium aphanadermatum [4]): 0%; % Control Bean Rust (Uromyces phaseoli; applied at 16 ppm): 98%; pest or weed control at 2 g/kg seed (Pythium aphanadermatum [5]): 0%
